Measured values taken from patent publication US20180055848A1 (Board of Supervisors of Louisiana State University and …, priority 2015, published 2018).
Like-named read-outs stand apart in the source and are kept apart here.

Key:
[1] = tested on: Differentiated human adipocytes; assay: Lipolysis assay (glycerol release) in cultured adipocytes; format: cell-based; settings: 3 hours
Experimental: Primary human adipose tissue was obtained from patients undergoing liposuction, paniculectomy, or bariatric surgery. Tissue was processed by […]) to isolate and cryopreserve pre-adipocytes. At the time of the assay, pre-adipocytes were differentiated into adipocytes. Differentiated human adipocytes adherent to the bottom of a 96-well plate were washed and treated with media containing one of ten treatments: […] After incubation, a 50 μL aliquot was removed and combined with 50 μL glycerol reagent, in a colorimetric assay based on the amount of glycerol released during incubation with test compounds. Absorbance was measured at 540 nm, and results were calibrated against a standard curve. Eight replicates were conducted for each treatment.

[2] = tested on: Male Sprague-Dawley rats fed a high fat diet; assay: Example 5: weight gain, body composition and metabolic chamber in rats, 4 weeks; format: in vivo, rat
Experimental: (§1) The Pennington Biomedical Research Center Animal Care and Use Committee approved the animal protocols. […] Male Sprague-Dawley rats (Harlan, Inc., Indianapolis, Ind., 8-9 weeks old) were fed a high fat diet (60% calories from fat, D12492, Research Diets, New Brunswick, N.J.) for 4 weeks. […] All treatments were administered by intraperitoneal injection twice a day. […] Body composition was measured by Nuclear Magnetic Resonance (Minispec LF90 NMR analyzer, Bruker Optics, Billerica, Mass.). Weight and food intake were recorded every 2 days. […] Total activity was measured with a Phenomaster system (TSE Systems, Chesterfield Mo.). Chambers had evenly spaced infrared beam grids along X, Y, and Z axes; the system sensed and quantified total beam breaks caused by movements of the animal.

[3] = tested on: lean adults and post-obese adults; settings: 100 mg of caffeine, cited from earlier work
[4] = tested on: healthy adults; assay: Metabolic rate in humans (indirect calorimetry, crossover study)
[5] = tested on: adults; settings: after 6 months; cited from earlier work
[6] = tested on: Male Sprague-Dawley rats fed a high fat diet; assay: Example 6: lean and fat mass in rats, 8 weeks; format: in vivo, rat; settings: i.p. twice a day, albuterol 0.125 mg/kg, caffeine 3.12 mg/kg
Experimental: as §1

Question: Which increase in lipolysis ([1]; Isoproterenol 1 μM positive control, p<0.001) does the source give for `CC(C)NCC(O)c1ccc(O)c(O)c1` (stereo not shown) [isoproterenol, Isoproterenol] here?
Answer: Its increase in lipolysis is roughly 90%.

Question: With `Cn1c(=O)c2c(ncn2C)n(C)c1=O` [caffeine] as the compound, how does the fat accretion ([2]; 4 weeks, i.p. twice a day, p=0.006) read?
Answer: The fat accretion was “reduced fat accretion”.

Question: And the “increase in resting metabolic rate” value [3]?
Answer: The value was 3-4%.

Question: What about the “increase in resting metabolic rate” value ([3]; lean adults) of the same compound?
Answer: Its value is 150 kcal/day.

Question: What about the “increase in resting metabolic rate” value ([3]; post-obese adults) of the same compound?
Answer: The value was 80 kcal/day.

Question: What about the “increased energy expenditure (the delta)” value ([4]; 100 mg caffeine alone, oral) of the same compound?
Answer: The value was 37 kcal.

Question: And the “energy expenditure over the baseline metabolic rate” value ([4]; all dosages, single oral dose, p<0.02 to p<0.001, n=8)?
Answer: The value was “significant increases”.

Question: And the “increase in lipolysis over buffer-treated cells” value ([1]; caffeine 10 μg/mL, p=0.83)?
Answer: The value was “exception”.

Question: For `CCCCCCCCCCC[C@@H](C[C@@H]1OC(=O)[C@H]1CCCCCC)OC(=O)[C@H](CC(C)C)NC=O` [Orlistat], which weight loss [5] is on record?
Answer: The weight loss was “about 2.8%”.

Question: And the “weight loss attributable to fat loss” value [5]?
Answer: The value was 2.1%.

Question: What about the “weight loss attributable to reduction in lean tissue” value [5] of the same compound?
Answer: The value was 0.7%.

Question: What does the source list for `CC(C)(C)NCC(O)c1ccc(O)c(CO)c1` (stereo not shown) [albuterol, albuterol (salbutamol)]?
Answer: additional lean mass gained compared to the saline control group ([2]; 4 weeks, i.p. twice a day, albuterol 0.125 mg/kg, caffeine 3.12 mg/kg, p<0.001): 16.6 g; weight gain compared to the saline control group ([2]; 4 weeks, i.p. twice a day, albuterol 0.125 mg/kg, caffeine 3.12 mg/kg, p=0.04): gained significantly more weight; energy expenditure during the dark phase ([2]; albuterol 0.125 mg/kg i.p. twice a day, p=0.07): trend towards increased energy expenditure; fat mass gained, week 8 ([6]; p=0.004, n=30): 20.1 g; lean mass gained by week 8 ([6]; p=0.03, n=30): 60.3 g
